Results from patent US7205295B2, “Benzoxazin-3-ones and derivatives thereof as therapeutic agents” (Warner-Lambert Company LLC, priority 2002, dated 2007).
One block for each compound: values may come before it.

Legend:
[1] = molecular target: T1, PI3Kγ (p101/p110γ protein) (Homo sapiens, UniProt P48736); assay: PI3Kγ In Vitro Kinase Assay; format: biochemical; details: purified recombinant p101/p110γ with G protein β1/γ2 subunits; 20 μM ATP, 25 μM PIP2; 20 minutes at room temperature
T1 construct: HA; made in house; host or cells: Spodoptera frugiperda (Sf9) cells, baculovirus co-infection
Procedure, shortened: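 Sf9-expressed, purified human p101/p110γ (2.7 nM) was activated by Gβ1/γ2 (57.7 nM) and reacted with 20 μM ATP plus [γ-32P]ATP on PIP2 (25 μM)/PE (300 μM) micelles with 10 mM MgCl2 in HEPES buffer. Reactions ran 20 min at room temperature. Filter-captured radiolabeled PIP3 was counted by scintillation.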

T1 sequence (P48736 whole entry, species assumed): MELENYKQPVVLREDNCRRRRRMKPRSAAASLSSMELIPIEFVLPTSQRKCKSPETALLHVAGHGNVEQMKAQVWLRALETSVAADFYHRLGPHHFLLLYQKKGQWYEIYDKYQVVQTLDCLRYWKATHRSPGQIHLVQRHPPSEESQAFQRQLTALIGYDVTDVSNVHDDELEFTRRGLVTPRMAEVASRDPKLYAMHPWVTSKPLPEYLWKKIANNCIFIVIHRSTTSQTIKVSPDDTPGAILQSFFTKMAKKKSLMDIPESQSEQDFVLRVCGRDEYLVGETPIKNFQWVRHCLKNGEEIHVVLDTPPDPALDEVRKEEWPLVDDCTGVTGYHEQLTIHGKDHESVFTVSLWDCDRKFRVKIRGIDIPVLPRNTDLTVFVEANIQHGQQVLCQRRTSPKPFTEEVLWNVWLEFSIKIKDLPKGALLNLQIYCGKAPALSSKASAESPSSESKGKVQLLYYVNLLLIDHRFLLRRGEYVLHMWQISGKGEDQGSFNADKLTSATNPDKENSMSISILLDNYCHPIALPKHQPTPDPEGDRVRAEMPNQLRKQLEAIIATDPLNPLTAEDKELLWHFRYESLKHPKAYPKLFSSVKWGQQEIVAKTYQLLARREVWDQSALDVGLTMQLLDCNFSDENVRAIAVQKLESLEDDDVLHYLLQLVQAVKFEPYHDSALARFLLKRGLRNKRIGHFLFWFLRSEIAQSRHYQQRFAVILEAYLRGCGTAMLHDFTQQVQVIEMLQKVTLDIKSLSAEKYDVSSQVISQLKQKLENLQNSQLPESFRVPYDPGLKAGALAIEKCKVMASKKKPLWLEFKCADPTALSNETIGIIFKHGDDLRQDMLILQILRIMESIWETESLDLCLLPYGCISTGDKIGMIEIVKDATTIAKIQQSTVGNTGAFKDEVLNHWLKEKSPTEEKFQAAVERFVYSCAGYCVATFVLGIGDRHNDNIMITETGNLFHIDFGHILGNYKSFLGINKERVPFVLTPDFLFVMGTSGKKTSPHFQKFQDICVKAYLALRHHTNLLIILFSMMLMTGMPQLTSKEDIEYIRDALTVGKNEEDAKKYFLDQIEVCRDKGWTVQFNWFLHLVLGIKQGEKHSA
T1 sequence (Q8WYR1 whole entry partner, species assumed): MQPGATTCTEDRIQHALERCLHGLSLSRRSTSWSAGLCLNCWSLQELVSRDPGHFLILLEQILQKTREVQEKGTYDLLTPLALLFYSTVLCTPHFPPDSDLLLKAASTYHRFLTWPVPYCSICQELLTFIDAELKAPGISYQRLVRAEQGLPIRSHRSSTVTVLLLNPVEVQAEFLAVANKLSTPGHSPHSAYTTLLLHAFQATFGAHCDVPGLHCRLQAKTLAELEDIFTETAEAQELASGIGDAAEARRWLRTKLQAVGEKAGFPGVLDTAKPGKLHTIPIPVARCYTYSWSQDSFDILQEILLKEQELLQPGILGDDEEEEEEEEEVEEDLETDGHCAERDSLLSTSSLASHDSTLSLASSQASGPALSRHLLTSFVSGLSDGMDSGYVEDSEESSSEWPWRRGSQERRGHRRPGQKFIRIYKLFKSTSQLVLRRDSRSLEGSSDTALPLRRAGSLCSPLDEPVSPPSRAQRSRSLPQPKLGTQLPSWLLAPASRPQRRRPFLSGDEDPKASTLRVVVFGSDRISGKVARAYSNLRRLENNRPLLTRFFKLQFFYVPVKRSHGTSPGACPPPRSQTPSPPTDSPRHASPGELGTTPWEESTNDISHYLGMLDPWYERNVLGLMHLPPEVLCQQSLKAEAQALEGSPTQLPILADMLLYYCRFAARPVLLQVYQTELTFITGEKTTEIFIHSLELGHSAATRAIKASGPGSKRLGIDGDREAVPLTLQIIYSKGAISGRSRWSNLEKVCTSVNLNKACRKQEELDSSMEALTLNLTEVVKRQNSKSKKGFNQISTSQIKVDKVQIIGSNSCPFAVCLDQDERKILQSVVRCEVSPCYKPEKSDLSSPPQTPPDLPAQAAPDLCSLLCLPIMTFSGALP

SMILES: CCN(CC)Cc1ccc(CN2C(=O)COc3c(C)cc(C=C4SC(=S)NC4=O)cc32)cc1 [Example 92, 4-(4-Diethylaminomethyl-benzyl)-8-methyl-6-(4-oxo-2-thioxo-thiazolidin-5-ylidenemethyl)-4H-benzo[1,4]oxazin-3-one]
melting point: 250 to 252 °C
IC50 [1]: 6 nM

SMILES: O=C1NC(=S)SC1=Cc1ccc2c(c1)N(CCc1ccc(Cl)cc1Cl)C(=O)CO2 [Example 105, 4-[2-(2,4-Dichloro-phenyl)-ethyl]-6-(4-oxo-2-thioxo-thiazolidin-5-ylidenmethyl)-4H-benzo[1,4]oxazin-3-one]
melting point: 267 to 269 °C
IC50 [1]: 5 nM

SMILES: Cc1cc(C)c(C)c(CN2C(=O)COc3ccc(C=C4SC(=S)NC4=O)cc32)c1C [Example 96, 6-(4-Oxo-2-thioxo-thiazolidin-5-ylidenemethyl)-4-(2,3,5,6-tetramethyl-benzyl)-4H-1,4-benzoxazin-3-one]
melting point: 277 to 280 °C
IC50 [1]: 670 nM

SMILES: O=C1NC(=S)SC1=Cc1ccc2c(c1)N(CCc1cccc(C(F)(F)F)c1)C(=O)CO2 [Example 106, 6-(Oxo-2-thioxo-thiazolidin-5-ylidenmethyl)-4-[2-(3-trifluoromethyl-phenyl)-ethyl]-4H-benzo[1,4]oxazin-3-one]
melting point: 241 to 243 °C
IC50 [1]: 9 nM

SMILES: CCN(CC)Cc1ccc(CN2C(=O)COc3ccc(C=C4SC(=O)NC4=O)cc32)cc1 [Example 93, 5-[4-(4-Diethylaminomethyl-benzyl)-3-oxo-3,4-dihydro-2H-benzo[1,4]oxazin-6-ylmethylene]-thiazolidine-2,4-dione]
melting point: 244 to 246 °C
IC50 [1]: 16 nM

SMILES: Cc1cc(C=C2SC(=S)NC2=O)cc2c1OCC(=O)N2Cc1ccc(CN2CCCCC2)cc1 [Example 91, 8-Methyl-6-(4-oxo-2-thioxo-thiazolidin-5-ylidenemethyl)-4-(4-piperidin-1-ylmethyl-benzyl)-4H-benzo[1,4]oxazin-3-one]
melting point: 277 to 278 °C
IC50 [1]: 8 nM

SMILES: O=C1NC(=S)SC1=Cc1ccc2c(c1)N(OCc1ccc(Cl)c(Cl)c1)C(=O)CO2 [Example 88, 4-(3,4-Dichloro-benzyloxy)-6-(4-oxo-2-thioxo-thiazolidin-5-ylidenemethyl)-4H-benzo[1,4]oxazin-3-one]
melting point: > 300 °C
IC50 [1]: 3 nM

SMILES: Cc1cc(C)cc(CON2C(=O)COc3ccc(C=C4SC(=S)NC4=O)cc32)c1 [Example 89, 4-(3,5-Dimethyl-benzyloxy)-6-(4-oxo-2-thioxo-thiazolidin-5-ylidenemethyl)-4H-benzo[1,4]oxazin-3-one]
melting point: > 300 °C
IC50 [1]: 4 nM

SMILES: Cc1ccc(CN2C(=O)COc3ccc(C=C4SC(=S)NC4=O)cc32)c(C)c1 [Example 100, 4-(2,4-Dimethyl-benzyl)-6-(4-oxo-2-thioxo-thiazolidin-5-ylidenemethyl)-4H-1,4-benzoxazin-3-one]
IC50 [1]: 5 nM

SMILES: O=C1NC(=S)SC1=Cc1ccc2c(c1)N(Cc1cc(Br)cc(I)c1)C(=O)CO2 [Example 41, 4-(3-Bromo-5-iodo-benzyl)-6-(4-oxo-2-thioxo-thiazolidin-5-ylidenemethyl)-4H-1,4-benzoxazin-3-one]
IC50 [1]: 61 nM

SMILES: Cc1cccc(CCN2C(=O)COc3ccc(C=C4SC(=S)NC4=O)cc32)c1 [Example 101, 6-(4-Oxo-2-thioxo-thiazolidin-5-ylidenmethyl)-4-[2-m-tolyl-ethyl]-4H-benzo[1,4]oxazin-3-one]
IC50 [1]: 5 nM

SMILES: CC(=O)OCc1cc(CN2C(=O)COc3ccc(C=C4SC(=S)NC4=O)cc32)cc(C(C)(C)C)c1 [Example 70, Acetic acid 3-tert-butyl-5-[3-oxo-6-(4-oxo-2-thioxo-thiazolidin-5-ylidenemethyl)-2,3-dihydro-1,4-benzoxazin-4-ylmethyl]-benzyl ester]
IC50 [1]: 12 nM

SMILES: Cc1cc(C)cc(CN2C(=O)COc3c(C)cc(C=C4SC(=S)NC4=O)cc32)c1 [Example 28, 4-(3,5-Dimethyl-benzyl)-8-methyl-6-(4-oxo-2-thioxo-thiazolidin-5-ylidenemethyl)-4H-1,4-benzoxazin-3-one]
IC50 [1]: 3 nM

Other lines, results leading:

melting point: 275 to 277 °C
IC50 [1]: 72 nM
SMILES: O=C1NC(=S)SC1=Cc1cc(Cl)c2c(c1)N(CCc1ccc(C(F)(F)F)cc1)C(=O)CO2 [Example 107, 8-Chloro-6-(oxo-2-thioxo-thiazolidin-5-ylidenmethyl)-4-[2-(4-trifluoromethyl-phenyl)-ethyl]-4H-benzo[1,4]oxazin-3-one]

melting point: 249 to 250 °C
IC50 [1]: 2 nM
SMILES: O=C1NC(=S)SC1=Cc1ccc2c(c1)N(OCC1CCCCC1)C(=O)CO2 [Example 208, 4-Cyclohexylmethoxy-6-(4-oxo-2-thioxo-thiazolidin-5-ylidenemethyl)-4H-benzo[1,4]oxazin-3-.one]

melting point: 263 to 266 °C
IC50 [1]: 5 nM
SMILES: O=C1NC(=S)SC1=Cc1ccc2c(c1)N(CCc1ccc(F)c(F)c1)C(=O)CO2 [Example 133, 4-[2-(3,4-Difluoro-phenyl)-ethyl]-6-(4-oxo-2-thioxo-thiazolidin-5-ylidenemethyl)-4H-benzo[1,4]oxazin-3-one]

melting point: 278 to 280 °C
IC50 [1]: 5 nM
SMILES: O=C1NC(=S)SC1=Cc1ccc2c(c1)N(CCc1ccc(Cl)cc1)C(=O)CO2 [Example 134, 4-[2-(4-Chloro-phenyl)-ethyl]-6-(4-oxo-2-thioxo-thiazolidin-5-ylidenemethyl)-4H-1,4-benzoxazin-3-one]

melting point: 267 to 269 °C
IC50 [1]: 10 nM
SMILES: Cc1ccc(CCN2C(=O)COc3ccc(C=C4SC(=S)NC4=O)cc32)cc1 [Example 138, 6-(4-Oxo-2-thioxo-thiazolidin-5-ylidenemethyl)-4-(2-p-tolyl-ethyl)-4H-1,4-benzoxazin-3-one]

melting point: 220 to 224 °C
IC50 [1]: 49 nM
SMILES: O=C1NC(=S)SC1=Cc1ccc2c(c1)N(CCc1ccc(Oc3ccccc3)cc1)C(=O)CO2 [Example 129, 6-(4-Oxo-2-thioxo-thiazolidin-5-ylidenemethyl)-4-[2-(4-phenoxy-phenyl)-ethyl]-4H-1,4-benzoxazin-3-one]

IC50 [1]: 2 nM
SMILES: O=C1NC(=S)SC1=Cc1ccc2c(c1)N(CCCCc1ccccc1)C(=O)CO2 [Example 174, 6-(4-Oxo-2-thioxo-thiazolidin-5-ylidenemethyl)-4-(4-phenyl-butyl)-4H-1,4-benzoxazin-3-one]

IC50 [1]: 125 nM
SMILES: Cc1cc(C)nc(CN2C(=O)COc3ccc(C=C4SC(=S)NC4=O)cc32)n1 [Example 232, 4-(4,6-Dimethyl-pyrimidine-2-ylmethyl)-6-(4-oxo-2-thioxo-thiazolidin-5-ylidenemethyl)-4H-benzo[1,4]oxazin-3-one]

IC50 [1]: 34200 nM
SMILES: O=C1NC(=O)C(=Cc2ccc3c(c2)N(Cc2cc(Cl)nc(Cl)c2)C(=O)CO3)S1 [Example 226, 5-[4-(2,6-Dichloro-pyridin-4-ylmethyl)-3-oxo-3,4-dihydro-2H-1,4-benzoxazin-6-ylmethylene]-thiazolidine-2,4-dione]

IC50 [1]: 7 nM
SMILES: CC(C)(C)c1cc(CN2CCOCC2)cc(CN2C(=O)COc3ccc(/C=C4\SC(=S)NC4=O)cc32)c1 [Example 278, 4-(3-tert-Butyl-5-morpholin-4-ylmethyl-benzyl)-6-[4-oxo-2-thioxo-thiazolidin-(5Z)-ylidenemethyl]-4H-benzo[1,4]oxazin-3-one]

IC50 [1]: 7 nM
SMILES: O=C1NC(=S)OC1=Cc1ccc2c(c1)N(Cc1ccc(Cl)c(Cl)c1)C(=O)CO2 [Example 191, 4-(3,4-Dichloro-benzyl)-6-(4-oxo-2-thioxo-oxazolidin-5-ylidenemethyl)-4H-1,4-benzoxazin-3-one]

IC50 [1]: 10 nM
SMILES: Cc1cc(C)cc(CN2C(=O)COc3ccc(C=C4SC(=S)NC4=O)cc32)c1 [Example 181, 4-(3,5-Dimethyl-benzyl)-6-(4-oxo-2-thioxo-thiazolidin-5-ylidenemethyl)-4H-1,4-benzoxazin-3-one]

IC50 [1]: 8 nM
SMILES: CN1CCN(C(=O)c2ccc(CN3C(=O)COc4ccc(/C=C5\SC(=S)NC5=O)cc43)cc2)CC1 [Example 280, 4-[4-(4-Methyl-piperazine-1-carbonyl)-benzyl]-6-[4-oxo-2-thioxo-thiazolidin-(5Z)-ylidenemethyl]-4H-benzo[1,4]oxazin-3-one]

IC50 [1]: 29 nM
SMILES: Cc1ccc(CN2C(=O)COc3ccc(C=C4SC(=S)NC4=O)cc32)cc1 [Example 140, 4-(4-Methyl-benzyl)-6-(4-oxo-2-thioxo-thiazolidin-5-ylidenemethyl)-4H-benzo[1,4]oxazin-3-one]

IC50 [1]: 495 nM
SMILES: CC(C)(C)c1cc(CN2C(=O)COc3c(F)cc(C=C4SC(=S)NC4=O)cc32)cc(C(C)(C)C)n1 [Example 220, 4-(2,6-Di-tert-butyl-pyridin-4-ylmethyl)-8-fluoro-6-(4-oxo-2-thioxo-thiazolidin-5-ylidenemethyl)-4H-1,4-benzoxazin-3-one]

IC50 [1]: 22 nM
SMILES: Cc1cc(C=C2SC(=S)NC2=O)cc2c1OCC(=O)N2CCc1ccc(Cl)c(Cl)c1 [Example 112, 4-[2-(3,4-dichloro-phenyl)-ethyl]-8-methyl-6-(4-oxo-2-thioxo-thiazolidin-5-ylidenmethyl)-4H-benzo[1,4]oxazin-3-one]

IC50 [1]: 3640 nM
SMILES: O=C1COc2ccc(C=C3NC(=S)NC3=O)cc2N1 [Example 200, 6-(5-Oxo-2-thioxo-imidazolidin-4-ylidenemethyl)-4H-benzo[1,4]oxazin-3-one]

IC50 [1]: 4 nM
SMILES: CN(C)S(=O)(=O)c1ccc(CN2C(=O)COc3ccc(/C=C4\SC(=S)NC4=O)cc32)cc1 [Example 264, N,N-Dimethyl-4-{3-oxo-6-[4-oxo-2-thioxo-thiazolidin-(5Z)-ylidenemethyl]-2,3-dihydro-benzo[1,4]oxazin-4-ylmethyl}-benzenesulfonamide]

IC50 [1]: 4640 nM
SMILES: C/C(=C1/SC(=S)NC1=O)c1ccc2c(c1)NC(=O)CO2 [Example 268, 6-{1-[4-Oxo-2-thioxo-thiazolidin-(5Z)-ylidene]-ethyl}-4H-benzo[1,4]oxazin-3-one]
